Source: patent publication US20250145599A1, “CERTAIN CHEMICAL ENTITIES, COMPOSITIONS, AND METHODS” (Retune Pharma Inc., priority 2022, published 2025)

biological target: IGF-1R (Homo sapiens, UniProt P08069); assay: IGF-1R biochemical assay (ADP-Glo); conditions: read-out: IGF1R IC50
Protocol: The inhibitory activity against IGF-1R was measured using ADP-Glo assay. The percent (%) inhibition at each concentration of compound is calculated based on and relative to the luminescence signal in the Max and Min control wells contained within each assay plate. The Max control wells contain enzyme and substrate as 0% inhibition, and the Min control wells only contain substrate without enzyme as 100% inhibition. The concentrations and % inhibition values for tested compounds are plotted and the concentration of compound required for 50% inhibition (IC50) is determined with a four-parameter logistic dose response equation.
Table 3 provides IC50 data of representative compounds against IGF-1R using ADP-Glo assay. The IC50 data are designated within the following ranges: A: ≤0.10 μM, B: >0.10 μM to ≤1 μM, C: >1 μM to ≤20 μM

Chain of IGF-1R (P08069 31-1367): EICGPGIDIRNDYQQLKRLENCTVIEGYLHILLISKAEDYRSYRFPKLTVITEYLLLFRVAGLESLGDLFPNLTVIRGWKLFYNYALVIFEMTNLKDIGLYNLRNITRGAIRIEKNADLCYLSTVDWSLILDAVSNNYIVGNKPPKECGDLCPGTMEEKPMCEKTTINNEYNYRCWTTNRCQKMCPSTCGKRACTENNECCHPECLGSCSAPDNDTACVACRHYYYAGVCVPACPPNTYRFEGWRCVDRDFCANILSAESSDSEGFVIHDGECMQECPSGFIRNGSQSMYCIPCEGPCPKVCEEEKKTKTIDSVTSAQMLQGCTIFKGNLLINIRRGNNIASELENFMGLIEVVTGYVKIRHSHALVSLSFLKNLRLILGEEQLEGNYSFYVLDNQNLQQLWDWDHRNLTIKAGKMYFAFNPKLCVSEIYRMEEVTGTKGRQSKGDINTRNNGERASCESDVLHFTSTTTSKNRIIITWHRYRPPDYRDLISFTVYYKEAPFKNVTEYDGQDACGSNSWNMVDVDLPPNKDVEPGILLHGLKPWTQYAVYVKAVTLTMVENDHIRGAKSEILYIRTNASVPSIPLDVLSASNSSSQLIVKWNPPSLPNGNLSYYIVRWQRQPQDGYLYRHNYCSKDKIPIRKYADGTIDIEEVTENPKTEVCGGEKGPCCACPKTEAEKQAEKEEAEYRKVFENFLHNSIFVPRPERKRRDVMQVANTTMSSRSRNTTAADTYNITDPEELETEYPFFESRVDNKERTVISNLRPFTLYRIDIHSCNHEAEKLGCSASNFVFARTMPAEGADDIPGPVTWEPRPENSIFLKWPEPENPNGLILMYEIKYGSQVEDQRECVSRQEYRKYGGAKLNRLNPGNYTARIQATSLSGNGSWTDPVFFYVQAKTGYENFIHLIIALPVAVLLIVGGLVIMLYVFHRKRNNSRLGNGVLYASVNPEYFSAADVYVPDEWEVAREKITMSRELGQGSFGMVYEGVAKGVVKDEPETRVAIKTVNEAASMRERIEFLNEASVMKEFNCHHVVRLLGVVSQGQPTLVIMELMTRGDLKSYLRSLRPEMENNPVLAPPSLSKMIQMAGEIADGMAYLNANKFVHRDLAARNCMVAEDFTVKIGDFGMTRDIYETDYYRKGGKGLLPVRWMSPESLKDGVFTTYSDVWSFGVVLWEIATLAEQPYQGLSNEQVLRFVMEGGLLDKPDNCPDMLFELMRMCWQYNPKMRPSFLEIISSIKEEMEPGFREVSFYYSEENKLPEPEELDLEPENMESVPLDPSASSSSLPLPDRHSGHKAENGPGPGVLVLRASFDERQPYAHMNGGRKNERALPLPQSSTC

| IC50 [µM] | Compound |
| --- | --- |
| 1 to 20 | NC(=O)c1c(-c2ccc3ccc(-c4ccccc4)nc3c2)nn(C2CCN(C(N)=O)CC2)c1N [Example C003, 4-(5-amino-4-carbamoyl-3-(2-phenylquinolin-7-yl)-1H-pyrazol-1-yl)piperidine-1-carboxamide] |
| ≤ 0.1 | C[C@]1(O)C[C@@H](n2nc(-c3ccc4c(OC(F)F)cc(-c5ccccc5)nc4c3F)c(C(N)=O)c2N)C1 [Example C044, 5-amino-3-(4-(difluoromethoxy)-8-fluoro-2-phenylquinolin-7-yl)-1-((1s,3s)-3-hydroxy-3-methylcyclobutyl)-1H-pyrazole-4-carboxamide] |
| 0.1 to 1 | NC(=O)c1c(-c2ccc3ccc(-c4ccccc4)nc3c2)nn(C2CC(F)(F)C2)c1N [Example C030, 5-amino-1-(3,3-difluorocyclobutyl)-3-(2-phenylquinolin-7-yl)-1H-pyrazole-4-carboxamide] |
| ≤ 0.1 | COc1cc(-c2ccccc2F)nc2cc(-c3nn([C@H]4C[C@](C)(O)C4)c(N)c3C(N)=O)ccc12 [Example C047, 5-amino-3-(2-(2-fluorophenyl)-4-methoxyquinolin-7-yl)-1-((1r,3r)-3-hydroxy-3-methylcyclobutyl)-1H-pyrazole-4-carboxamide] |
| 0.1 to 1 | NC(=O)c1c(-c2ccc3ccc(-c4ccccc4)nc3c2)nn(C2CCNCC2)c1N [Example C002, 5-amino-3-(2-phenylquinolin-7-yl)-1-(piperidin-4-yl)-1H-pyrazole-4-carboxamide] |
| ≤ 0.1 | COc1cc(-c2cccc(F)c2)nc2cc(-c3nn([C@H]4C[C@](C)(O)C4)c(N)c3C(N)=O)ccc12 [Example C049, 5-amino-3-(2-(3-fluorophenyl)-4-methoxyquinolin-7-yl)-1-((1r,3r)-3-hydroxy-3-methylcyclobutyl)-1H-pyrazole-4-carboxamide] |
| 0.1 to 1 | CN1CCN(C[C@H]2C[C@@H](n3nc(-c4ccc5ccc(-c6ccccc6)nc5c4)c(C(N)=O)c3N)C2)CC1 [Example C019, 5-amino-1-((1s,3s)-3-((4-methylpiperazin-1-yl)methyl)cyclobutyl)-3-(2-phenylquinolin-7-yl)-1H-pyrazole-4-carboxamide] |
| 0.1 to 1 | COc1nc(-c2ccccc2)nc2cc(-c3nn([C@H]4C[C@@](C)(O)C4)c(N)c3C(N)=O)ccc12 [Example C064, 5-amino-1-((1s,3s)-3-hydroxy-3-methylcyclobutyl)-3-(4-methoxy-2-phenylquinazolin-7-yl)-1H-pyrazole-4-carboxamide] |
| ≤ 0.1 | NC(=O)c1c(-c2ccc3ccc(-c4ccccc4)nc3c2)nn([C@H]2C[C@H](CN3CCNCC3)C2)c1N [Example C016, 5-amino-3-(2-phenylquinolin-7-yl)-1-((1r,3r)-3-(piperazin-1-ylmethyl)cyclobutyl)-1H-pyrazole-4-carboxamide] |
| 0.1 to 1 | NC(=O)c1c(-c2ccc3ccc(-c4ccccc4)nc3c2)nn(C2CCN(CCO)CC2)c1N [Example C008, 5-amino-1-(1-(2-hydroxyethyl)piperidin-4-yl)-3-(2-phenylquinolin-7-yl)-1H-pyrazole-4-carboxamide] |
| 1 to 20 | NC(=O)c1c(-c2ccc3ccc(-c4ccccc4)nc3c2)nn(C2CC(=O)C2)c1N [Example C001, 5-amino-1-(3-oxocyclobutyl)-3-(2-phenylquinolin-7-yl)-1H-pyrazole-4-carboxamide] |
| 0.1 to 1 | CC(C)n1nc(-c2ccc3ccc(-c4ccccc4)nc3c2)c(C(N)=O)c1N [Example C024, 5-amino-1-isopropyl-3-(2-phenylquinolin-7-yl)-1H-pyrazole-4-carboxamide] |
| 0.1 to 1 | NC(=O)c1c(-c2ccc3ccc(-c4ccccc4)nc3c2)nn(C2CC(N3CCC3)C2)c1N (stereo not drawn) [Example C027, 5-amino-1-(3-(azetidin-1-yl)cyclobutyl)-3-(2-phenylquinolin-7-yl)-1H-pyrazole-4-carboxamide] |
| 0.1 to 1 | COc1cc(-c2ccccc2)nc2cc(-c3nn([C@H]4C[C@@](C)(O)C4)c(N)c3C(N)=O)cc(F)c12 [Example C055, 5-amino-3-(5-fluoro-4-methoxy-2-phenylquinolin-7-yl)-1-((1s,3s)-3-hydroxy-3-methylcyclobutyl)-1H-pyrazole-4-carboxamide] |
| 1 to 20 | COC(=O)N1CCC(n2nc(-c3ccc4ccc(-c5ccccc5)nc4c3)c(C(N)=O)c2N)CC1 [Example C004, methyl 4-(5-amino-4-carbamoyl-3-(2-phenylquinolin-7-yl)-1H-pyrazol-1-yl)piperidine-1-carboxylate] |
| ≤ 0.1 | C[C@]1(O)C[C@@H](n2nc(-c3ccc4ccc(-c5ccccc5F)nc4c3)c(C(N)=O)c2N)C1 [Example C037, 5-amino-3-(2-(2-fluorophenyl)quinolin-7-yl)-1-((1s,3s)-3-hydroxy-3-methylcyclobutyl)-1H-pyrazole-4-carboxamide] |
| 1 to 20 | C[C@]1(O)C[C@@H](n2nc(-c3ccc4c(O)cc(-c5ccccc5)nc4c3F)c(C(N)=O)c2N)C1 [Example C042, 5-amino-3-(8-fluoro-4-hydroxy-2-phenylquinolin-7-yl)-1-((1s,3s)-3-hydroxy-3-methylcyclobutyl)-1H-pyrazole-4-carboxamide] |
| ≤ 0.1 | CN1CCN(C2CC(n3nc(-c4ccc5ccc(-c6ccccc6)nc5c4)c(C(N)=O)c3N)C2)CC1 (stereo not drawn) [Example C026, 5-amino-1-(3-(4-methylpiperazin-1-yl)cyclobutyl)-3-(2-phenylquinolin-7-yl)-1H-pyrazole-4-carboxamide] |
| 0.1 to 1 | C[C@]1(O)C[C@@H](n2nc(-c3ccc4ccc(-c5ccc(F)cc5)nc4c3)c(C(N)=O)c2N)C1 [Example C039, 5-amino-3-(2-(4-fluorophenyl)quinolin-7-yl)-1-((1s,3s)-3-hydroxy-3-methylcyclobutyl)-1H-pyrazole-4-carboxamide] |
| 1 to 20 | C[C@]1(C(=O)O)C[C@H](n2nc(-c3ccc4ccc(-c5ccccc5)nc4c3)c(C(N)=O)c2N)C1 [Example C022, (1r,3r)-3-(5-amino-4-carbamoyl-3-(2-phenylquinolin-7-yl)-1H-pyrazol-1-yl)-1-methylcyclobutane-1-carboxylic acid] |
| 0.1 to 1 | C[C@]1(O)C[C@H](n2nc(-c3ccc4ccc(-c5ccccc5)nc4c3)c(C(N)=O)c2N)C1 [Example C006, 5-amino-1-((1r,3r)-3-hydroxy-3-methylcyclobutyl)-3-(2-phenylquinolin-7-yl)-1H-pyrazole-4-carboxamide] |
| 0.1 to 1 | C[C@]1(O)C[C@@H](n2nc(-c3ccc4cc(F)c(-c5ccccc5)nc4c3F)c(C(N)=O)c2N)C1 [Example C059, 5-amino-3-(3,8-difluoro-2-phenylquinolin-7-yl)-1-((1s,3s)-3-hydroxy-3-methylcyclobutyl)-1H-pyrazole-4-carboxamide] |
| 1 to 20 | NC(=O)c1c(-c2ccc3ccc(-c4ccccc4)nc3c2)nn([C@H]2C[C@@H](O)C2)c1N [Example C009, 5-amino-1-((1s,3s)-3-hydroxycyclobutyl)-3-(2-phenylquinolin-7-yl)-1H-pyrazole-4-carboxamide] |
| 1 to 20 | C[C@]1(O)C[C@@H](n2nc(-c3ccc4cnc(-c5ccccc5)nc4c3)c(C(N)=O)c2N)C1 [Example C054, 5-amino-1-((1s,3s)-3-hydroxy-3-methylcyclobutyl)-3-(2-phenylquinazolin-7-yl)-1H-pyrazole-4-carboxamide] |
